Earlier results, collected in US20190070136A1 (ASPIRO PHARMA LIMITED, priority 2017, published 2019).

In the case of O=NN(CCCl)C(=O)NCCCl [Carmustine, 1,3-bis (2-chloroethyl)-1-nitrosourea], the “Log P” value is listed as 1.53.
